{
  "source": "patent US12364678B2",
  "about": "“Pharmaceutical composition comprising palmitoylethanolamide and L- Acetylcarnitine” (EPITECH GROUP S.P.A., priority 2014, dated 2025)",
  "key": {"[1]": {"tested_on": "sciatic nerve ligation", "assay": "Mechanical allodynia after sciatic nerve ligation (neuropathic pain model), Dynamic Plantar Aesthesiometer", "assay_type": "in vivo, mice of the C57BL/6J strain", "settings": "alone", "method": "The experiments were carried out by using male mice of the C57BL/6J strain with a weight ranging between 25 and 30 g; 10 animals per group were used. The animals were anesthetized with sodium pentobarbital (60 mg/kg, i.p.) and subjected to a surgical procedure of sciatic nerve ligation capable of inducing neuropathic pain in accordance with the method described by Bennet and Xie (1988, Pain; 33:87-107). Sham animals were used as a control. The products were administered p.o. with a tube, suspended in 2% CarboxymethylCellulose. The mechanical allodynia was measured by using the Dynamic Plantar Aesthesiometer equipment of the Company Ugo Basile-Varese, Italy. The values in the table are referred to the weight, expressed in grams, to which the animal object of the experiment, subjected thereto, withdraws its paw when feeling pain."}, "[2]": {"tested_on": "carrageenan", "assay": "Carrageenan (CAR) test, paw edema volume by plethysmometer", "assay_type": "in vivo, Wistar male rats", "settings": "for effect on the formation of the edema by carrageenan (paw volume): 5 mg/kg orally, alone, 30 minutes to 6 hours after carrageenan (FIG. 2a); for reduction of the volume of the legs after CAR: all time points (FIG. 3a)", "method": "The carrageenan (CAR) test was performed according to a protocol that provides intra-plantar injection of carrageenan in rats and administration of the active ingredient orally by gavage. This is a standard inflammation test. The 1% (weight/volume) carrageenan solution (Sigma) was prepared in sterile saline and subsequently kept at 37° C. for 1 hour to obtain complete solubilization. The paw edema was induced in Wistar male rats by injecting 200 μl of carrageenan into the plantar aponeurosis of the right hind paw. The increase in size of the treated paw was measured prior to induction and 30 minutes after injection of the inflammatory agent using a plethysmometer (model 7140; Ugo Basile). The subsequent paw size measurements were taken at 60-minute intervals with respect to the first measurement, for a total of 7 measurements. The difference between the values obtained from the treated animals and the control animals was calculated and assessed statistically for all six hours."}, "[3]": {"tested_on": "sciatic nerve ligation", "settings": "100 mg/kg; cited from earlier work"}, "[4]": {"tested_on": "carrageenan", "assay": "Carrageenan (CAR) test, hyperalgesic response, paw withdrawal latency (Plantar Test)", "assay_type": "in vivo, Wistar male rats", "settings": "for lengthening of the retraction time compared to the control: 5 mg/kg, individually administered (FIG. 2b); for increase of latency time after CAR: all time points (FIG. 3b)", "method": "The carrageenan (CAR) test was performed according to a protocol that provides intra-plantar injection of carrageenan in rats and administration of the active ingredient orally by gavage. This is a standard inflammation test. The 1% (weight/volume) carrageenan solution (Sigma) was prepared in sterile saline and subsequently kept at 37° C. for 1 hour to obtain complete solubilization. The paw edema was induced in Wistar male rats by injecting 200 μl of carrageenan into the plantar aponeurosis of the right hind paw. Hyperalgesic response to heat was measured at various time points (0, 30 min, 1, 2, 3, 4, 5 and 6 h) in accordance with the method described by Hargreaves et al. (Pain, 32 (1988), 77-88) using the Plantar Test 7371 (Ugo Basile, Italy). In short, the animals were allowed to move freely in an open transparent plastic chamber. After a period of acclimatization, a heat source radiating infrared light (IR 60) was placed under the glass floor and concentrated on the hind paw. When the animal felt pain and withdrew its paw, the source was turned off and the time measured was recorded."}, "[5]": {"tested_on": "sciatic nerve ligation", "settings": "10 mg/kg; cited from earlier work"}},
  "data": [
    {"smiles": "CC(=O)O[C@H](CC(=O)[O-])C[N+](C)(C)C", "note": "[LAC, L-Acetylcarnitine]", "values": [
      {"measurement": "alleviation of the neuropathic pain (mechanical allodynia)", "setting": "[1]; 10 mg/kg p.o.", "value": "do not cause a significant activity"},
      {"measurement": "alleviation of the neuropathic pain (mechanical allodynia)", "setting": "[1]; 100 mg/kg p.o.", "value": "significant alleviation"},
      {"measurement": "effect on the formation of the edema by carrageenan (paw volume)", "setting": "[2]", "value": "does not have a significant effect"},
      {"measurement": "reduction of the volume of the legs after CAR", "setting": "[2]; LAC 3.0 mg/kg oral", "value": "did not achieve a significant reduction"},
      {"measurement": "reduction of the volume of the legs after CAR", "setting": "[2]; LAC 5.0 mg/kg oral", "value": "did not achieve a significant reduction"},
      {"measurement": "mechanical allodynia", "setting": "[3]", "value": "decrease the mechanical allodynia"},
      {"measurement": "lengthening of the retraction time compared to the control", "setting": "[4]", "value": "do not show any effect"},
      {"measurement": "increase of latency time after CAR", "setting": "[4]; LAC 3.0 mg/kg oral", "value": "did not achieve a significant increase"},
      {"measurement": "increase of latency time after CAR", "setting": "[4]; LAC 5.0 mg/kg oral", "value": "did not achieve a significant increase"}
    ]},
    {"smiles": "CCCCCCCCCCCCCCCC(=O)NCCO", "note": "[PEA-m, palmitoylethanolamide]", "values": [
      {"measurement": "effect on the formation of the edema by carrageenan (paw volume)", "setting": "[2]", "value": "does not have a significant effect"},
      {"measurement": "lengthening of the retraction time compared to the control", "setting": "[4]", "value": "do not show any effect"}
    ]},
    {"smiles": "CCCCCCCCCCCCCCCC(=O)NCCO", "note": "[PEA-um, palmitoylethanolamide]", "values": [
      {"measurement": "alleviation of the neuropathic pain (mechanical allodynia)", "setting": "[1]; 5 mg/kg p.o.", "value": "do not cause a significant activity"},
      {"measurement": "alleviation of the neuropathic pain (mechanical allodynia)", "setting": "[1]; 10 mg/kg p.o.", "value": "significant alleviation"}
    ]},
    {"smiles": "CCCCCCCCCCCCCCCC(=O)NCCO", "note": "[palmitoylethanolamide]", "values": [
      {"measurement": "effect in the neuropathic pain model", "setting": "[5]", "value": "particularly relevant effect"}
    ]}
  ]
}
